The values that follow are results of earlier work, collected in patent US20090202633A1, “Extended release formulations of guaifenesin” (priority 2008, published 2009).

SMILES strings stand for the structures.

Assay in data set [1]: not given
This is another data set of the same source.

For `COc1ccccc1OCC(O)CO` (centres unmarked) [Guaifenesin, 3-(2-methoxyphenoxy)-1,2-propanediol], the typical plasma half-life entry was “approximately one”. The solubility in water entry in data set [1] is given as “soluble in water”.
